One assay relates to Echinochloa crus-galli. The assay is described as follows: External application of the compound to Echinochloa crus-galli seeds on agar medium, radicle and embryo length. The format is in vivo. As to conditions: 500 mg/L in 0.8% agar, 28° C., 3 days in the dark, 3 biological repeats. The procedure:
I. Procedures for External Application of the Compound to Lettuce and Echinochloa crus-galli Compounds to be tested: isoorientin and isoorientin-2″-O-glucopyranoside. (1) The compounds to be tested were dried into powder with a centrifugal concentrator and weighed, a proper amount of sterile water was added to make its final concentration to be 10 mg/mL. (2) 500 mL of 0.8% agar was prepared and sterilized in an autoclave. […] solution of the compounds to be tested at a concentration of 10 mg/mL were added to make the final concentration of the compounds to be 500 mg/L. The medium containing the compound to be tested was quickly poured into a 10 cm×10 cm square dish, and the square dish was shaken quickly so that the medium was evenly spread in the square dish. The medium added with equal amount of sterile water was used as control. (4) The seeds of Echinochloa crus-galli were washed with distilled water for several times, and then placed on sterile filter paper to dry. (5) After the medium had solidified, the seeds of Echinochloa crus-galli were placed with sterile tweezers on the medium, and 26 seeds were placed in each petri dish (2 rows, with 13 seeds in each row). Each treatment had 3 biological repeats. (6) The petri dishes were placed in an incubator at 28° C. for 3 days in the dark. (7) Phenotypic statistics: after 3 days, the length of radicle and embryo of each treated material were counted.

The test system of assay [1] is Os02g0589400 recombinant protein. In words: In vitro enzymatic activity of Os02g0589400 (glycosylation of isoorientin with UDPG, UPLC-QTOF/MS). The settings on record: glycosyl donor UDPG, Tris-HCl pH 7.0, 30° C., 1 hour. The assay is classed as biochemical, Oryza sativa L. ssp. japonica cv. Zhonghua 11 (ZH11). The procedure: The enzymatic activity reaction system was: 38 μL of Tris-HCl (pH 7.0, 50 mM, containing 10 mM DTT), 1 μL of 10 mM glycosyl receptor (the glycosyl receptor of Os02g0589400 is isoorientin), 1 μL of 100 mM glycosyl donor (UDPG), and 10 μL of 2.03 μg/μL of recombinant protein of Os02g0589400 obtained in (2). React in water bath at 30° C. for 1 hour, and then stop the reaction with equal volume of methanol. A sample containing protein obtained from E. coli into which a pMAL-c2X mock vector was transferred according to the above step (2) was taken as the negative control. Centrifuge at 12,000 rpm, 4° C. for 10 min, 30 μL of the resulting supernatant was taken and measured by UPLC-QTOF/MS, and the measuring method was the same as that shown in Example 1.

On to `O=c1cc(-c2ccc(O)c(O)c2)oc2cc(O)c([C@@H]3O[C@H](CO)[C@@H](O)[C@H](O)[C@H]3O[C@@H]3O[C@H](CO)[C@@H](O)[C@H](O)[C@H]3O)c(O)c12` [isoorientin-2″-O-glucopyranoside], for which, in the assay on Echinochloa crus-galli, the “embryo length of Echinochloa crus-galli compared with the control” value is recorded as “no significant difference” and the “radicle length of Echinochloa crus-galli compared with the control” value was “no significant difference”.
Turning to `O=c1cc(-c2ccc(O)c(O)c2)oc2cc(O)c([C@@H]3O[C@H](CO)[C@@H](O)[C@H](O)[C@H]3O)c(O)c12` [isoorientin], in the assay on Echinochloa crus-galli, the “embryo length of Echinochloa crus-galli compared with the control” value is “no significant difference” and the “radicle length of Echinochloa crus-galli compared with the control” value is on record as “significantly shortened”. Moreover, the “glycosylation of the glycosyl receptor by Os02g0589400 recombinant protein compared with the mock control” value in assay [1] is reported as “could catalyze isoorientin to produce isoorientin-2″-O-glucopyranoside”.

Values taken from patent publication US20250134102A1, “USE OF FLAVONOID GLYCOSIDE IN RESISTANCE OF WEEDS IN RICE” (INSTITUTE OF BOTANY, THE CHINESE ACADEMY OF SCIENCE, priority 2021, published 2025).
